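In this assay, cells in 96-well plates receive the compound at five concentrations for 48 hours. Endpoints are linearly interpolated between the surrounding concentrations. GI50 = concentration required for 50% inhibition of growth. TGI marks complete inhibition of growth.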
Columns and labels:
Assay in all cases: inhibition of tumour cell growth, NCI panel, 48 h
[1] = system: RPMI-8226 leukemia
[2] = system: K-562 leukemia
[3] = system: CAKI-1 renal
[4] = system: SK-MEL-2 melanoma
[5] = system: SNB-19 CNS
[6] = system: HOP-62 NSCLC
[7] = system: U251 CNS
[8] = system: LOX IMVI melanoma
[9] = system: ACHN renal
[10] = system: NCI-H23 lung
[11] = system: A549 NSCLC
[12] = system: HT29 colon
[13] = system: SW-620 colon
[14] = system: PC-3 prostate
[15] = system: MALME-3M melanoma
[16] = system: OVCAR-4 ovarian
[17] = system: MDA-MB-435
[18] = system: MCF7 breast
[19] = system: UACC-62 melanoma
[20] = system: OVCAR-3 ovarian
[21] = system: SK-MEL-28 melanoma
[22] = system: T-47D breast
[23] = system: MDA-MB-468 breast
[24] = system: UACC-257 melanoma
[25] = system: 786-0 renal
[26] = system: SK-OV-3 ovarian
[27] = system: NCI-H522 lung
[28] = system: SK-MEL-5 melanoma
[29] = system: OVCAR-5 ovarian
[30] = system: BT-549 breast
[31] = system: KM12 colon
[32] = system: TK-10 renal
[33] = system: HL-60(TB) leukemia
[34] = system: M14 melanoma
[35] = system: UO-31 renal
[36] = system: COLO 205 colon
[37] = system: MDA-MB-231 breast
[38] = system: NCI-H226 lung
[39] = system: HOP-92 NSCLC
[40] = system: HCT-15 colon
[41] = system: SF-539 CNS
[42] = system: A498 renal
[43] = system: DU-145 prostate
[44] = system: SNB-75 CNS
[45] = system: SF-268 CNS
[46] = system: HCC-2998 colon
[47] = system: IGROV1 ovarian

Q: What does the source list for `CC(=O)Oc1ccccc1C(=O)[Se]CC(=O)Nc1cccc(C(F)(F)F)c1`?
A: GI50 [1]: 5.44 µM; TGI [1]: 85 µM; GI50 [2]: 5.59 µM; TGI [2]: 55.3 µM; GI50 [3]: 0.198 µM; TGI [3]: 0.361 µM; GI50 [4]: 2.84 µM; TGI [4]: 10.9 µM; GI50 [5]: 1.86 µM; TGI [5]: 3.8 µM; GI50 [6]: 2.91 µM; TGI [6]: 5.44 µM; GI50 [7]: 2.12 µM; TGI [7]: 5.3 µM; GI50 [8]: 1.94 µM; TGI [8]: 3.65 µM; GI50 [9]: 2.39 µM; TGI [9]: 6.36 µM; GI50 [10]: 1.5 µM; TGI [10]: 3.87 µM; GI50 [11]: 1.66 µM; TGI [11]: 3.8 µM; GI50 [12]: 1.88 µM; TGI [12]: 5.16 µM; GI50 [13]: 1.46 µM; TGI [13]: 3.11 µM; GI50 [14]: 5.23 µM; TGI [14]: 21.9 µM; GI50 [15]: 1.57 µM; TGI [15]: 3.04 µM; GI50 [16]: 5.19 µM; TGI [16]: 60.9 µM; GI50 [17]: 3.12 µM; TGI [17]: 5.41 µM; GI50 [18]: 2.75 µM; TGI [18]: 12.4 µM; GI50 [19]: 1.38 µM; TGI [19]: 3.07 µM; GI50 [20]: 1.71 µM; TGI [20]: 4.38 µM; GI50 [21]: 2.06 µM; TGI [21]: 4.35 µM; GI50 [22]: 7.09 µM; TGI [22]: 49.5 µM; GI50 [23]: 1.75 µM; TGI [23]: 3.35 µM; GI50 [24]: 3.21 µM; TGI [24]: 9.82 µM; GI50 [25]: 2.21 µM; TGI [25]: 4.62 µM; GI50 [26]: 4.22 µM; TGI [26]: 20.3 µM; GI50 [27]: 1.83 µM; TGI [27]: 3.81 µM; GI50 [28]: 1.29 µM; TGI [28]: 2.69 µM; GI50 [29]: 2.15 µM; TGI [29]: 5.12 µM; GI50 [30]: 2.13 µM; TGI [30]: 3.61 µM; GI50 [31]: 5.04 µM; TGI [31]: 19.5 µM; GI50 [32]: 2.07 µM; TGI [32]: 4.71 µM; GI50 [33]: 1.78 µM; TGI [33]: 5.27 µM; GI50 [34]: 1.95 µM; TGI [34]: 3.83 µM; GI50 [35]: 1.23 µM; TGI [35]: 2.56 µM; GI50 [36]: 4.35 µM; TGI [36]: 17 µM; GI50 [37]: 2.31 µM; TGI [37]: 4.18 µM; GI50 [38]: 3.11 µM; TGI [38]: 5.55 µM; GI50 [39]: 0.763 µM; TGI [39]: 2.15 µM; GI50 [40]: 1.42 µM; TGI [40]: 2.85 µM; GI50 [41]: 1.87 µM; TGI [41]: 3.34 µM; GI50 [42]: 1.45 µM; TGI [42]: 2.95 µM; GI50 [43]: 2.09 µM; TGI [43]: 4.61 µM; GI50 [44]: 2.47 µM; TGI [44]: 5.94 µM; GI50 [45]: 2.69 µM; TGI [45]: 5.87 µM; GI50 [46]: 11.9 µM; TGI [46]: 25.7 µM; GI50 [47]: 2.05 µM; TGI [47]: 4 µM

— PubChem BioAssay (NCI)
